Experimental data taken from paper PMC9811465, “Structure-Based Discovery of Small-Molecule Inhibitors of the Autocatalytic Proliferation of α-Synuclein Aggregates” (Molecular Pharmaceutics, 2022).

How the values were obtained:
α-synuclein = molecular target: T1, α-synuclein (Homo sapiens, UniProt P37840); experiment: ThT seeded aggregation kinetics; half-time increased […] times at […] molar equivalents; weakest, not significant at […] equivalents; format: biochemical
T1 construct: gene SNCA

α-synuclein (fibrils) = molecular target: T2, α-synuclein (fibrils) (Homo sapiens, UniProt P37840); experiment: fluorescence polarization with fibrils (Kd in monomer equivalents); supported by mass spectrometry pull-down, fluorescence colocalization and aggregation kinetics; format: binding
T2 construct: gene SNCA; recombinant human α-synuclein, preformed amyloid fibrils

ThT seeded aggregation kinetics; half-time increased 1.5 times at 10 molar equiv (α-synuclein) | Kd (α-synuclein (fibrils)) | SMILES
1.5 fold increase in half-time (t1/2) |  | Cc1nc2ccccn2c1C(=O)NCc1nccnc1-c1ccco1 [A, compound A]
 | ~4 µM | Cc1c(OCc2nnn[nH]2)ccc2c1oc(=O)c1ccccc12 [C, compound C]
